Structures can show the parent of a compound that is named as a salt.
Target: T1, hCaSR (Calcium sensing receptor) in stably transfected HEK293 cells (Homo sapiens, UniProt P41180)
T1 construct: expressed in transfected cells; host or cells: HEK293 (stably transfected)
T1 sequence (P41180 20-1078): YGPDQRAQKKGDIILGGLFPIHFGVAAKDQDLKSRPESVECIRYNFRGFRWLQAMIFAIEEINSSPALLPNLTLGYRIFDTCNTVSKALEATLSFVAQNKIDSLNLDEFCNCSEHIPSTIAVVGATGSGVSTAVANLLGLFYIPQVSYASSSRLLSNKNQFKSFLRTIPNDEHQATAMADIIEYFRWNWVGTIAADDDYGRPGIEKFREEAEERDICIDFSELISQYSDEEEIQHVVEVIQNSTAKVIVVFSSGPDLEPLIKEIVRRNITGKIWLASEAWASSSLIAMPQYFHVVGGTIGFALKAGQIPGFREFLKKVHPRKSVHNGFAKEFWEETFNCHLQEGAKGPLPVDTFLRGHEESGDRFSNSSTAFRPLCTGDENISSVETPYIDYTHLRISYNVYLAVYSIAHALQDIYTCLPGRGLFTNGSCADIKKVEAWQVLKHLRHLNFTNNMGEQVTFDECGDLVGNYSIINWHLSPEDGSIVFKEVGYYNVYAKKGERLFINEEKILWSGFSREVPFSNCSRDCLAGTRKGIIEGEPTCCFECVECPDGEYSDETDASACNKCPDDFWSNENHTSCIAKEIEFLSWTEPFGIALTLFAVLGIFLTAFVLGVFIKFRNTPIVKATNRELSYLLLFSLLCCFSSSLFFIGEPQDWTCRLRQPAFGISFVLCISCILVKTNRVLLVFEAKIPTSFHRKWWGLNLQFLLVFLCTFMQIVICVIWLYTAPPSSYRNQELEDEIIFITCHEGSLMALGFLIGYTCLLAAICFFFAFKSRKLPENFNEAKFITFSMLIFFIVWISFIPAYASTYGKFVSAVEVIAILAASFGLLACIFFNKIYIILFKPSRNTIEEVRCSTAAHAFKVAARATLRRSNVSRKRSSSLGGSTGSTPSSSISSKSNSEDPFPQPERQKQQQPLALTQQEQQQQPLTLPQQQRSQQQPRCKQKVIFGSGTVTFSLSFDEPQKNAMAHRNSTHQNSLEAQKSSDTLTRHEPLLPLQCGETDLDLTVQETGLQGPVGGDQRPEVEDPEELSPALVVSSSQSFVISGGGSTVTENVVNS
Test: In-vitro assay of calcimimetics through modulation of calcium sensing receptor (CaSR): increase in intracellular calcium, FLIPR
Assay type: cell-based
Settings: HEK293 cells expressing hCaSR; intracellular calcium (Fluo4NW, FLIPR); 0.3 mM CaCl2; 8-point assay; read-out: EC50 in range
Protocol: In-Vitro Assay Method of Calcimemtics Through Modulation of Calcium Sensing Receptor (CaSR):
The ability of the compounds to modulate Calcium sensing receptor is determined by measuring an increase in intracellular calcium [Ca^2+i]. Stably transfected HEK293 cells expressing hCaSR_pTriEx-3 hygro vector are developed. Cells are grown overnight on a 96-well plate to 80% confluency in Ham's F12 containing 20% FBS at 37° C., 5% CO2 Subsequently, cells are washed extensively with 20 mM HEPES buffer containing 126 mM NaCl2, 1 mM MgCl2 and 4 mM KCl2 to remove serum components that might interfere with the assay. Cells are loaded with calcium sensing Fluo4NW dye in HEPES base buffer containing 0.1% BSA and 1 mg/ml glucose for 30 minutes to measure changes in intracellular calcium. The activities of the compounds are measured in FLIPR using 0.3 mM CaCl2 in 20 mM HEPES base buffer. The effectiveness of the compound to modulate receptor activity is determined by calculating the EC50 responses for that compound in an 8-point assay and plotted using GraphPad Prism 5.
The compounds prepared were tested using the above assay procedure and the results obtained are given below.

Structure (SMILES)	EC50
COc1cccc([C@@H](C)NCC2CN(c3cccc(C)c3)CCO2)c1 (stereo partly drawn) [Example 134, (1R)-1-(3-Methoxyphenyl)-N-((4-(m-tolyl)morpholin-2-yl)methyl)ethanamine hydrochloride]	< 20 nM
C[C@@H](NCC1CN(CC2CCCC2)C(=O)CO1)c1cccc2ccccc12 (single isomer, unassigned) [Example-69a]	50 to 200 nM
C[C@@H](NCC1COCCN1c1ccccc1)c1cccc2ccccc12 (single isomer, unassigned) [Example-1a, hydrochloride]	< 20 nM
C[C@@H](NCC1CN(c2ccc3c(c2)OC(F)(F)O3)C(=O)CO1)c1cccc2ccccc12 (stereo partly drawn) [compound 59, 4-(2,2-Difluorobenzo[d][1,3]dioxol-5-yl)-6-((((R)-1-(naphthalen-1-yl)ethyl)amino)methyl)morpholin-3-one hydrochloride]	20 to 50 nM
COc1cccc(N2CCOCC2CN[C@H](C)c2cccc3ccccc23)c1 (single isomer, unassigned) [5b]	< 20 nM
COc1cccc([C@@H](C)NCC2CN(c3ccccc3)CCO2)c1 (stereo partly drawn) [compound 32]	50 to 200 nM
C[C@@H](NCC1CN(c2cccc(F)c2F)C(=O)CO1)c1cccc2ccccc12 (stereo partly drawn) [compound 54, 4-(2,3-Difluorophenyl)-6-((((R)-1-(naphthalen-1-yl)ethyl)amino)methyl)morpholin-3-one hydrochloride]	< 20 nM
C[C@@H](NCC1CN(Cc2cccc(F)c2F)C(=O)CO1)c1cccc2ccccc12 (stereo partly drawn) [Example 81, 4-(2,3-Difluorobenzyl)-6-((((R)-1-(naphthalen-1-yl)ethyl)amino)methyl)morpholin-3-one hydrochloride]	< 20 nM
C[C@@H](NCC1COCCN1c1cccc(C(F)(F)F)c1)c1cccc2ccccc12 (single isomer, unassigned) [Example-2a]	< 20 nM
COc1cccc([C@@H](C)NCC2COCCN2Cc2ccccc2)c1 (single isomer, unassigned) [Example-37b]	50 to 200 nM
COc1cccc([C@@H](C)NCC2CN(c3ccc(F)c(F)c3)CCO2)c1 (stereo partly drawn) [Example 135, (1R)-N-((4-(3,4-Difluorophenyl)morpholin-2-yl)methyl)-1-(3-methoxyphenyl)ethanamine hydrochloride]	< 20 nM
C[C@@H](NCC1CN(c2ccc(C(=O)O)cc2)CCO1)c1cccc2ccccc12 (stereo partly drawn) [Example 147, 4-(2-((((R)-1-(Naphthalen-1-yl)ethyl)amino)methyl)morpholino)benzoic acid hydrochloride]	50 to 200 nM
C[C@@H](NCC1COCCN1Cc1ccccc1)c1cccc2ccccc12 (single isomer, unassigned) [Example-36a]	50 to 200 nM
C[C@@H](NCC1CN(c2cccc(C(F)(F)F)c2)CCO1)c1cccc2ccccc12 (stereo partly drawn) [compound 22]	20 to 50 nM
C[C@@H](NCC1COCCN1Cc1cccc(C(F)(F)F)c1)c1cccc2ccccc12 (single isomer, unassigned) [Example-35b]	20 to 50 nM
C[C@@H](NCC1COCCN1c1cccc(F)c1)c1cccc2ccccc12 (stereo partly drawn) [Example-9]	< 20 nM
Cc1cccc(N2CCOCC2CN[C@H](C)c2cccc3ccccc23)c1 (stereo partly drawn) [Example 120, (1R)-1-(Naphthalen-1-yl)-N-((4-(m-tolyl)morpholin-3-yl)methyl)ethanamine hydrochloride]	< 20 nM
COc1cccc([C@@H](C)NCC2COCCN2c2ccc(C)cc2)c1 (stereo partly drawn) [compound 8]	50 to 200 nM
C[C@@H](NCC1CN(Cc2ccc(F)cc2C(F)(F)F)C(=O)CO1)c1cccc2ccccc12 (stereo partly drawn) [Example 82, 4-(4-Fluoro-2-(trifluoromethyl)benzyl)-6-((((R)-1-(naphthalen-1-yl)ethyl)amino)methyl)morpholin-3-one hydrochloride]	< 20 nM
C[C@@H](NCC1CN(c2ccc(F)cc2)CCO1)c1cccc2ccccc12 (stereo partly drawn) [compound 28]	< 20 nM
C[C@@H](NCC1CN(c2ccc(CC(=O)O)cc2)C(=O)CO1)c1cccc2ccccc12 (stereo partly drawn) [compound 60, 2-(4-(2-((((R)-1-(Naphthalen-1-yl)ethyl)amino)methyl)-5-oxomorpholino)phenyl)acetic acid hydrochloride]	50 to 200 nM

Results, then the compound that gave them:

EC50	Structure (SMILES)
50 to 200 nM	COc1cccc([C@@H](C)NCC2COCCN2c2cccc(C)c2)c1 (single isomer, unassigned) [10a]
50 to 200 nM	C[C@@H](NCCC1CN(c2ccc(C(=O)O)cc2)CCO1)c1cccc2ccccc12 (single isomer, unassigned) [Example 112a, hydrochloride]
< 20 nM	C[C@@H](NCC1CN(c2ccccc2)CCO1)c1cccc2ccccc12 (single isomer, unassigned) [26a]
< 20 nM	Cc1ccc(N2CCOC(CN[C@H](C)c3cccc4ccccc34)C2)cc1 (single isomer, unassigned) [27b]
50 to 200 nM	Cc1cc(N2CCOC(CN[C@H](C)c3cccc4ccccc34)C2)ccc1C(=O)O (single isomer, unassigned) [Example 136b, hydrochloride]
20 to 50 nM	COc1cc([C@@H](C)NCC2CN(Cc3cc(F)ccc3F)C(=O)CO2)ccc1F (single isomer, unassigned) [Example 160a, hydrochloride]
< 20 nM	COc1cccc([C@@H](C)NCC2COCCN2c2cccc(C)c2)c1 (single isomer, unassigned) [10b]
50 to 200 nM	C[C@@H](NCCC1CN(c2ccc(C(F)(F)F)c(C(=O)O)c2)CCO1)c1cccc2ccccc12 (single isomer, unassigned) [Example 110a, hydrochloride]
50 to 200 nM	C[C@@H](NCCC1CN(c2cccc(OCC(=O)O)c2)CCO1)c1cccc2ccccc12 (single isomer, unassigned) [Example 113a, hydrochloride]
50 to 200 nM	Cc1ccc(N2CCOC(CN[C@H](C)c3cccc4ccccc34)C2)cc1 (single isomer, unassigned) [27a]
< 20 nM	C[C@@H](NCC1CN(c2cc(C(=O)O)cc(C(F)(F)F)c2)CCO1)c1cccc2ccccc12 (single isomer, unassigned) [Example 150a, hydrochloride]
20 to 50 nM	C[C@@H](NCC1CN(c2ccc(F)c(F)c2)C(=O)CO1)c1cccc2ccccc12 (single isomer, unassigned) [62b, hydrochloride]
20 to 50 nM	Cc1ccc(N2CCOC(CCN[C@H](C)c3cccc4ccccc34)C2)cc1CCC(=O)O (single isomer, unassigned) [Example 108a, hydrochloride]
20 to 50 nM	COc1cc([C@@H](C)NCC2CN(Cc3ccc(F)cc3)C(=O)CO2)ccc1F (single isomer, unassigned) [Example 101a, hydrochloride]
< 20 nM	COc1cccc([C@@H](C)NCC2COCCN2c2ccccc2)c1 (single isomer, unassigned) [11a]
< 20 nM	C[C@@H](NCC1CN(c2ccc(C(F)(F)F)cc2)CCO1)c1cccc2ccccc12 (single isomer, unassigned) [33a]
< 20 nM	C[C@@H](NCC1CN(Cc2cccc(C(F)(F)F)c2)C(=O)CO1)c1cccc2ccccc12 (single isomer, unassigned) [Example 70a, hydrochloride]
< 20 nM	C[C@@H](NCC1CN(CCc2ccc(F)cc2)C(=O)CO1)c1cccc2ccccc12 (single isomer, unassigned) [Example 98a, hydrochloride]
20 to 50 nM	Cc1ccc(N2CCOCC2CN[C@H](C)c2cccc3ccccc23)cc1 (single isomer, unassigned) [7b]
20 to 50 nM	COc1cccc([C@@H](C)NCC2COCCN2c2cccc(OC)c2)c1 (single isomer, unassigned) [6a]
50 to 200 nM	COc1cc([C@@H](C)NCC2CN(c3ccc(F)c(F)c3)C(=O)CO2)ccc1F (single isomer, unassigned) [Example 152b, hydrochloride]

From US9382216B2, “Substituted morpholines as modulators for the calcium sensing receptor” (LUPIN LIMITED, priority 2011, dated 2016)
